Consider two molecules from ChEMBL document CHEMBL1124790, “Angiotensin converting enzyme inhibitors. 10. Aryl sulfonamide substituted N-[1-carboxy-3-phenylpropyl]-L-alanyl-L-proline derivatives as novel antihypertensives” (J Med Chem, 1990).

Experiment [1] relates to Rattus norvegicus. Description: Percent change in K+ in fasted rats at the dose of 100 mg/kg (iv), 5-24 h. Format: functional.
For experiment [2], the system named is Rattus norvegicus. Description: Percent change in urinary volume in fasted rats at the dose of 100 mg/kg (iv), 5-24 h. Type of experiment: functional, Urine.
The target of experiment [3] is T1, Angiotensin-converting enzyme (Oryctolagus cuniculus) (UniProt P12822).
T1 sequence (whole entry): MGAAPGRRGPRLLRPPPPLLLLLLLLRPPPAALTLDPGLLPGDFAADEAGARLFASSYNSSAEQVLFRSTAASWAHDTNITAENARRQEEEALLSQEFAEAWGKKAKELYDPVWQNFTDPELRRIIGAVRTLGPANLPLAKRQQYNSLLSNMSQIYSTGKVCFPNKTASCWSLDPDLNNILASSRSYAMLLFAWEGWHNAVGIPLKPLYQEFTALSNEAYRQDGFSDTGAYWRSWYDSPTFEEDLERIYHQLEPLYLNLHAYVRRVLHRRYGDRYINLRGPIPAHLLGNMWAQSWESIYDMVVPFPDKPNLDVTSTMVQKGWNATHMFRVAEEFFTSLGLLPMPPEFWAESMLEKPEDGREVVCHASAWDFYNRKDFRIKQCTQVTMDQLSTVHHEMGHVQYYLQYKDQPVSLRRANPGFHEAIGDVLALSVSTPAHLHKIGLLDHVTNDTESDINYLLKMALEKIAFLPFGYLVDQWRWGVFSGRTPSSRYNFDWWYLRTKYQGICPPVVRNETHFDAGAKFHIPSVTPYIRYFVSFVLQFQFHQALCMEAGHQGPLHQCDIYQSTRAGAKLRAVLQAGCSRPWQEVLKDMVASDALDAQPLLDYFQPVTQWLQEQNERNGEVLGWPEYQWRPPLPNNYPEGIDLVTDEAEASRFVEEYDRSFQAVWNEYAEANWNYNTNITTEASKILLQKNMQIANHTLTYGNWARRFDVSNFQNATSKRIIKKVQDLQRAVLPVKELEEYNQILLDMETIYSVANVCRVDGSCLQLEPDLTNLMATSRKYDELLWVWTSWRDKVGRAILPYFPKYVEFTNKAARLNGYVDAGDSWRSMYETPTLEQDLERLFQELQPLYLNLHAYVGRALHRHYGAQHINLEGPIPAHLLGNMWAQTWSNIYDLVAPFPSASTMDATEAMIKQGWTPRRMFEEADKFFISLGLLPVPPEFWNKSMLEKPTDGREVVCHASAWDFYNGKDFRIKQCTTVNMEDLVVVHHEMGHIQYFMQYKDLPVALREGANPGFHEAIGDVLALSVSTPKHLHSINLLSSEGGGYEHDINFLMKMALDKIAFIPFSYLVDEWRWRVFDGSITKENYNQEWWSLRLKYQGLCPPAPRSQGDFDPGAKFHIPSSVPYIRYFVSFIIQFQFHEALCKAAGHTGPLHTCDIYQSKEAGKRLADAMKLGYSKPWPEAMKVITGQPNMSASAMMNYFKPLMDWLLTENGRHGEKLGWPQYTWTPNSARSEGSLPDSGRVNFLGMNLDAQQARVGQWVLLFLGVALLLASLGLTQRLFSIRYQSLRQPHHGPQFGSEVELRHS
Briefly: Time during which angiotensin I converting enzyme inhibition is greater than or equa to 30% in rabbit lung. Format: functional, tissue-based.

For experiment [4], the system named is Rattus norvegicus. Description: Percent change in Na+ in fasted rats at the dose of 100 mg/kg (iv), 0-5 h. Type of experiment: functional.
The subject of experiment [5] is Rattus norvegicus. Description: Percent change in K+ in fasted rats at the dose of 100 mg/kg (iv), 0-5 h. Format: functional.
For experiment [6], the target named is T1, Angiotensin-converting enzyme (Oryctolagus cuniculus). Briefly: In vivo inhibition of angiotensin I converting enzyme (ACE) in rabbit lung after (iv) administration of a dose of 10(mg/kg). Format: organism-based.
For experiment [7] the target is unchanged. Briefly: Time to inhibit maximum angiotensin I converting enzyme in rabbit lung. Type of experiment: functional, tissue-based.
The test system of experiment [8] is Rattus norvegicus. Briefly: Percent change in urinary volume in fasted rats at the dose of 100 mg/kg (iv), 0-5 h. Type of experiment: functional, Urine.
Experiment [9] addresses T2, Angiotensin-converting enzyme (Oryctolagus cuniculus, UniProt P12822).
T2 sequence (P12822 whole entry): T1 sequence (whole entry)
Briefly: In vitro inhibition of angiotensin I converting enzyme (ACE) in rabbit lung. Format: tissue-based.

Experiment [10] concerns Rattus norvegicus. Description: Percent change in Na+in fasted rats at the dose of 100 mg/kg (iv), 5-24 h. Type of experiment: functional.
For experiment [11], the system named is Rattus norvegicus. Description: Percent change in K+ in fasted rats at the dose of 82 mg/kg (iv), 0-5 h. Type of experiment: functional.
Experiment [12] relates to Angiotensin-converting enzyme (Sus scrofa). Description: Time during which angiotensin I converting enzyme inhibition is greater than or equal to 30% in Hog plasma.
Experiment [13] concerns Rattus norvegicus. Description: Percent change in Na+ in fasted rats at the dose of 82 mg/kg (iv), 0-5 h. Format: functional.
Experiment [14] deals with Rattus norvegicus. Briefly: Antihypertensive activity was determined in spontaneously hypertensive rat at a dose of 100 mg/kg(po) administration. Format: functional.
In experiment [15] the test system is Rattus norvegicus. Description: Time duration was determined for the actioni (determination of MAP in ip administration) in rat. Type of experiment: functional.
The species entered for experiment [16] is Rattus norvegicus. Briefly: The onset hour was determined in rat. Format: functional.
Experiment [17] deals with T1, Angiotensin-converting enzyme (Oryctolagus cuniculus). Briefly: In vivo inhibition of angiotensin I converting enzyme (ACE) in rabbit lung after (po) administration of a dose of 10(mg/kg). Format: organism-based.
The subject of experiment [18] is Angiotensin-converting enzyme (Sus scrofa). Briefly: Time to inhibit maximum angiotensin I converting enzyme in Hog plasma.
Experiment [19] deals with Rattus norvegicus. Briefly: Time duration was determined for the actioni (determination of MAP in case of oral administration) in rat. Type of experiment: functional.
For experiment [20], the system named is Rattus norvegicus. Description: Percent change in urinary volume in fasted rats at the dose of 82 mg/kg (iv), 0-5 h. Type of experiment: functional, Urine.
In experiment [21] the test system is Rattus norvegicus. Briefly: Antihypertensive activity was determined in spontaneously hypertensive rat at a dose of 100 mg/kg(ip) administration. Format: functional.
Experiment [22] concerns the target T2, Angiotensin-converting enzyme. Description: In vitro inhibition of angiotensin I converting enzyme(ACE) in rabbit lung. Type of experiment: tissue-based.

For orientation: inhibition means the change of the read-out against control, counted positive when it falls. Higher therefore signals a strong effect. As a reminder, the IC50 is the point on the concentration scale where inhibition reaches its midpoint. A high value points to weaker potency in that assay. For the molecule `C[C@H](N[C@@H](CCc1ccccc1)C(=O)O)C(=O)N1C[C@@H](NS(=O)(=O)c2cc(S(N)(=O)=O)c(N)cc2Cl)C[C@H]1C(=O)O`, the Change is 0% in experiment [1]; 60% in experiment [2]; -57% in experiment [4]; 0% in [5]; -49% in [8]; 38% in [10]. The molecule also returned a Duration in experiment [3] of 3.7 h. The molecule also returned an inhibition in experiment [6] of 76%. The molecule further showed a Time to max. inhibition in [7] of 0.3 h. Further, the IC50 in experiment [9] came out at 6.5 nM.

In the case of `C[C@H](N[C@@H](CCc1ccccc1)C(=O)O)C(=O)N1C[C@H](OCCC2Nc3cc(Cl)c(S(N)(=O)=O)cc3S(=O)(=O)N2)C[C@H]1C(=O)O` (stereo not given in full), the figures for the Change in experiment [11], in experiment [13] and in experiment [20] were 80%, 60% and 0%, respectively. For the same molecule, the Duration in [12] is 1.6 h; in [15], above 14 h; in experiment [19], 19 h; in experiment [3], 3.7 h. Also, the entries for the “Change in MAP” value in experiment [14] and in experiment [21] were -19% and -35%, respectively. The molecule further registered an Onset in experiment [16] of 0.25 h. In addition, the values for the inhibition in experiment [17] and in [6] were 38% and 100%, respectively. Moreover, the Time to max. inhibition in [18] came out at 2.6 h; in experiment [7], 0.3 h. The molecule further showed an IC50 in [22] of 22 nM.
